Biological target: T1, GPR88 (Homo sapiens, UniProt Q9GZN0)
T1 construct: expressed in transfected cells
Assay: Lance Ultra TR-FRET cAMP assay using stable PPLS-HA-GPR88 CHO cells
Assay type: cell-based
Settings: for Emax: CHO; for EC50 / cAMP pEC50: stable PPLS-HA-GPR88 CHO cells; for EC50: value in parentheses beside pEC50; for cAMP pEC50: 300 nM forskolin, mean ± standard error of at least three independent experiments in duplicate
Experimental: The compounds of the present disclosure offer potent agonism to the orphan receptor GPR88. As such, the compounds of the present disclosure provide therapeutic potential for the treatment of striatal associated disorders such as Parkinson's disease, schizophrenia, and alcohol addiction. All compounds were evaluated for the GPR88 agonist activity in the inventors' previously established in vitro GPR88 Lance TR-FRET cAMP assay. See, supra, Jin et al., 2018, Rahman et al., 2020, and Rahman et al., 2021. As will be described, the TR-FRET signal was converted to fmol cAMP by interpolating from the standard cAMP curve. Fmol cAMP was plotted against the log of compound concentration and data were fit to a three-parameter logistic curve to generate maximum response (Emax) and EC50 values.
Lance™ Ultra cAMP assay using stable PPLS-HA-GPR88 CHO cells. All cAMP assays were performed using the inventors' previously published methods. […] ACS Chemical Neuroscience 2016, 7, 1418-1432, which is incorporated by reference herein with regard to such teaching. Stimulation buffer containing 1× Hank's Balanced Salt Solution (HBSS), 5 mM HEPES, 0.1% BSA stabilizer, and 0.5 mM final IBMX was prepared and titrated to pH 7.4 at room temperature. Serial dilutions of the test compounds (5 μL) and 300 nM forskolin (5 μL), both prepared at 4× the desired final concentration in 2% DMSO/stimulation buffer, were added to a 96-well white ½ area microplate (PerkinElmer). A cAMP standard curve was prepared at 4× the desired final concentration in stimulation buffer and 5 μL was added to the assay plate. Stable PPLS-HA-GPR88 CHO cells were lifted with versene and spun at 270 g for 10 minutes. The cell pellet was resuspended in stimulation buffer and 4,000 cells (10 μL) were added to each well except wells containing the cAMP standard curve. After incubating for 30 min at room temperature, Eu-cAMP tracer and uLIGHT-anti-cAMPworking solutions were added per the manufacturer's instructions. After incubation at room temperature for 1 hour, the TR-FRET signal (ex 337 nm) was read on a CLARIOstar multimode plate reader (BMG Biotech, Cary, NC).
Data Analysis. The TR-FRET signal (665 nm) was converted to fmol cAMP by interpolating from the standard cAMP curve. Fmol cAMP was plotted against the log of compound concentration and data were fit to a three-parameter logistic curve to generate EC50 values (Prism, version 6.0, GraphPad Software, Inc., San Diego, CA).

T1 sequence (Q9GZN0 whole entry): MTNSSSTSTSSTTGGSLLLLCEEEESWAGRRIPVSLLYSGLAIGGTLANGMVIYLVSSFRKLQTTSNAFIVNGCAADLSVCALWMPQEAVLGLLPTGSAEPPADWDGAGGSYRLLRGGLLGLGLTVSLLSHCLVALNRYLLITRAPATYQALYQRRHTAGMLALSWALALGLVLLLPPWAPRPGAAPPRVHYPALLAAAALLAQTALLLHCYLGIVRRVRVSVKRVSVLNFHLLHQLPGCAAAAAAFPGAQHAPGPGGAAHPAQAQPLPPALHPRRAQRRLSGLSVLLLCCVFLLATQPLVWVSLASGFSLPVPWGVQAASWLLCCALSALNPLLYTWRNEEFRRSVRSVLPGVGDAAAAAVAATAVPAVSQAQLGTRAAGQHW

| EC50 [nM] | cAMP pEC50 | SMILES | Emax [%] |
| --- | --- | --- | --- |
| 1290 | – | CCCc1ccc(-c2ccc(C(C(=O)N[C@H](C)c3ccccc3)C(=O)OC)cc2)cc1 (mixture of isomers) [Compound 28, Methyl 2-{[(1 R)-1-Phenylethyl]carbamoyl}-2-{4′-propyl-[1,1′-biphenyl]-4-yl}acetate] | 99 ± 6 |
| 1380 | – | CCCc1ccc(-c2ccc(C(C(=O)NC)C(=O)N[C@H](C)c3ccccc3)cc2)cc1 (mixture of isomers) [Compound 29, N-Methyl-N′-[(1 R)-1-phenylethyl]-2-{4′-propyl-[1,1′-biphenyl]-4-yl}propanediamide] | 105 ± 2 |
| – | – | CCCC(C)COc1ccc([C@H](CO)C(=O)N[C@H](C)c2ccccc2)cc1 (stereo partly drawn) [Compound 3, (2R)-3-Hydroxy-2-{4-[(2-methylpentyl)oxy]phenyl}-N-[(1 R)-1-phenylethyl]propanamide] | 77 ± 4 |
| 200 | – | CCCC(C)COc1ccc([C@@H](CO)C(=O)N[C@H](C)c2ccccc2)cc1 (stereo partly drawn) [Compound 4, (2S)-3-Hydroxy-2-{4-[(2-methylpentyl)oxy]phenyl}-N-[(1 R)-1-phenylethyl]propenamide] | 94 ± 13 |
| – | Inactive | CCCC(C)COc1ccc([C@@H](CO)C(=O)N[C@@H](C)c2ccccc2)cc1 (stereo partly drawn) [Compound 5, (2S)-3-Hydroxy-2-{4-[(2-methylpentyl)oxy]phenyl}-N-[(1S)-1-phenylethyl]propenamide] | – |
| – | Inactive | CCCC(C)COc1ccc([C@H](CO)C(=O)N[C@@H](C)c2ccccc2)cc1 (stereo partly drawn) [Compound 6, (2R)-3-Hydroxy-2-{4-[(2-methylpentyl)oxy]phenyl}-N-[(1 S)-1-phenylethyl]propenamide] | – |
| – | – | CCCC(C)COc1ccc([C@@H](CO)C(=O)N[C@H](C)c2ccccc2C)cc1 (stereo partly drawn) [Compound 9, (2S)-3-Hydroxy-2-{4-[(2-methylpentyl)oxy]phenyl}-N-[(1 R)-1-(2-methylphenyl)ethyl]propenamide] | 48 ± 8 |
| – | – | CCCC(C)COc1ccc([C@@H](CO)C(=O)N[C@H](C)c2cccc(C)c2)cc1 (stereo partly drawn) [Compound 10, (2S)-3-Hydroxy-2-{4-[(2-methylpentyl)oxy]phenyl}-N-[(1 R)-1-(3-methylphenyl)ethyl]propenamide] | 100 ± 3 |
| – | – | CCCC(C)COc1ccc([C@@H](CO)C(=O)N[C@H](C)c2ccc(C)cc2)cc1 (stereo partly drawn) [Compound 11, (2S)-3-Hydroxy-2-{4-[(2-methylpentyl)oxy]phenyl}-N-[(1 R)-1-(4-methylphenyl)ethyl]propenamide] | 102 ± 7 |
| – | – | CCCC(C)COc1ccc([C@@H](CO)C(=O)N[C@H](C)c2ccc(F)cc2)cc1 (stereo partly drawn) [Compound 12, (2S)—N-[(1 R)-1-(4-Fluorophenyl)ethyl]-3-hydroxy-2-{4-[(2-methylpentyl)oxy]phenyl}propenamide] | 92 ± 3 |
| – | – | CCCC(C)COc1ccc([C@@H](CO)C(=O)N[C@H](C)c2ccc(OC)cc2)cc1 (stereo partly drawn) [Compound 13, (2S)-3-Hydroxy-N-[(1 R)-1-(4-methoxyphenyl)ethyl]-2-{4-[(2-methylpentyl)oxy]phenyl}propenamide] | 94 ± 3 |
| – | Inactive | CCCC(C)COc1ccc([C@@H](CO)C(=O)Nc2ccccc2)cc1 (stereo partly drawn) [Compound 14, (2S)-3-Hydroxy-2-{4-[(2-methylpentyl)oxy]phenyl}-N-phenylpropanamide] | – |
| – | – | CCCC(C)COc1ccc([C@@H](CO)C(=O)NCc2ccccc2)cc1 (stereo partly drawn) [Compound 15, (2S)—N-Benzyl-3-hydroxy-2-{4-[(2-methylpentyl)oxy]phenyl}propenamide] | 99 ± 9 |
| – | – | CCCC(C)COc1ccc([C@@H](CO)C(=O)NCCc2ccccc2)cc1 (stereo partly drawn) [Compound 16, (2S)-3-Hydroxy-2-{4-[(2-methylpentyl)oxy]phenyl}-N-(2-phenylethyl)propenamide] | 97 ± 5 |
| – | – | CCCC(C)COc1ccc([C@@H](CO)C(=O)N[C@H](CC)c2ccccc2)cc1 (stereo partly drawn) [Compound 17, (2S)-3-Hydroxy-2-{4-[(2-methylpentyl)oxy]phenyl}-N-[(1 R)-1-phenylpropyl]propenamide] | 102 ± 8 |
| – | – | CCCC(C)COc1ccc([C@@H](CO)C(=O)N[C@H](COC)c2ccccc2)cc1 (stereo partly drawn) [Compound 18, (2S)-3-Hydroxy-N-[(1 S)-2-methoxy-1-phenylethyl]-2-{4-[(2-methylpentyl)oxy]phenyl}propenamide] | 91 ± 4 |
| – | – | CCCC(C)COc1ccc([C@@H](CO)C(=O)NC2(c3ccccc3)CC2)cc1 (stereo partly drawn) [Compound 20, (2S)-3-Hydroxy-2-{4-[(2-methylpentyl)oxy]phenyl}-N-(1-phenylcyclopropyl)propenamide] | 81 ± 8 |
| – | – | CCCC(C)COc1ccc([C@@H](CO)C(=O)N[C@H](C)c2ccccn2)cc1 (stereo partly drawn) [Compound 21, (2S)-3-Hydroxy-2-{4-[(2-methylpentyl)oxy]phenyl}-N-[(1 R)-1-(pyridin-2-yl)ethyl]propenamide] | 93 ± 4 |
| – | – | CCCC(C)COc1ccc([C@@H](CO)C(=O)N[C@H](C)c2ccco2)cc1 (stereo partly drawn) [Compound 22, (2S)—N-[(1 R)-1-(Furan-2-yl)ethyl]-3-hydroxy-2-{4-[(2-methylpentyl)oxy]phenyl}propenamide] | 108 ± 6 |
| – | – | CCCC(C)COc1ccc([C@@H](CO)C(=O)N[C@H](C)c2cccs2)cc1 (stereo partly drawn) [Compound 23, (2S)-3-Hydroxy-2-{4-[(2-methylpentyl)oxy]phenyl}-N-[(1 R)-1-(thiophen-2-yl)ethyl]propenamide] | 93 ± 5 |
| – | – | CCCC(C)COc1ccc([C@@H](CO)C(=O)N[C@@H]2C[C@H]2c2ccccc2)cc1 (stereo partly drawn) [Compound 24] | 83 ± 5 |
| 138 | – | CCCc1ccc(-c2ccc([C@@H](CO)C(=O)N[C@H](C)c3ccccc3)cc2)cc1 [Compound 25, (2S)-3-Hydroxy-N-[(1 R)-1-phenylethyl]-2-{4′-propyl-[1,1′-biphenyl]-4-yl}propenamide] | 96 ± 3 |
| 257 | – | CCCc1ccc(-c2ccc(CC(=O)N[C@H](C)c3ccccc3)cc2)cc1 [Compound 26, N-[(1 R)-1-Phenylethyl]-2-{4′-propyl-[1,1′-biphenyl]-4-yl}acetamide] | 95 ± 5 |
| 501 | – | CCCc1ccc(-c2ccc([C@@H](CC)C(=O)N[C@H](C)c3ccccc3)cc2)cc1 [Compound 27, (2R)—N-[(1 R)-1-Phenylethyl]-2-{4′-propyl-[1,1′-biphenyl]-4-yl}butanamide] | 93 ± 9 |
| 1100 | – | CCCc1ccc(-c2ccc([C@@H](Cn3cncn3)C(=O)N[C@H](C)c3ccccc3)cc2)cc1 [Compound 30] | 96 ± 3 |

| SMILES | EC50 [nM] | cAMP pEC50 | Emax [%] |
| --- | --- | --- | --- |
| CC[C@H](C)COc1ccc([C@@H](CO)C(=O)N[C@H](C)c2ccccc2)cc1 [Compound 7, (2S)-3-Hydroxy-2-{4-[(2S)-2-methylbutoxy]phenyl}-N-[(1 R)-1-phenylethyl]propenamide] | 2000 | – | 88 ± 7 |
| CC[C@@H](C)COc1ccc([C@@H](CO)C(=O)N[C@H](C)c2ccccc2)cc1 [Compound 8, (2S)-3-Hydroxy-2-{4-[(2R)-2-methylbutoxy]phenyl}-N-[(1 R)-1-phenylethyl]propenamide] | 3090 | – | 96 ± 13 |
| CCCC(C)COc1ccc([C@@H](CO)C(=O)NC(C)(C)c2ccccc2)cc1 (stereo partly drawn) [Compound 19, (2S)-3-Hydroxy-2-{4-[(2-methylpentyl)oxy]phenyl}-N-(2-phenylpropan-2-yl)propenamide] | 1260 | 5.90 ± 0.05 | 83 ± 2 |
